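48-hour exposure; five concentrations; linearly interpolated endpoints. GI50 = concentration required for 50% inhibition of growth.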 Activity calls are given as the source filed them. Cut-off read from the data, not from the text of the source: active = GI50 up to about 1.1 µM and inactive = higher.
Experiments:
Experiment in all cases: DTP human tumour cell line panel, 48 h
HL-60 = system: HL-60
COLO 205 = system: COLO 205
SNB-75 = system: SNB-75
NCI-H522 = system: NCI-H522
A498 = system: A498
CAKI-1 = system: CAKI-1
HOP-62 = system: HOP-62
CCRF-CEM = system: CCRF-CEM
NCI-H23 = system: NCI-H23
HCC 2998 = system: HCC 2998
SN12C = system: SN12C
SF-268 = system: SF-268
RPMI-8226 = system: RPMI-8226
UACC-62 = system: UACC-62
OVCAR-4 = system: OVCAR-4
NCI-H460 = system: NCI-H460
SK-OV-3 = system: SK-OV-3
HCT-116 = system: HCT-116
M19-MEL = system: M19-MEL
DMS-273 = system: DMS-273
SR = system: SR
786-0 = system: 786-0
K562 = system: K562
DMS-114 = system: DMS-114
IGROV-1 = system: IGROV-1
SK-MEL-2 = system: SK-MEL-2
NCI-H226 = system: NCI-H226
HOP-92 = system: HOP-92
DLD-1 = system: DLD-1
MOLT-4 = system: MOLT-4
UO-31 = system: UO-31
LXFL 529 = system: LXFL 529
XF498 = system: XF498
SF-539 = system: SF-539
M14 = system: M14
Malme-3M = system: Malme-3M
SK-MEL-28 = system: SK-MEL-28
SNB-78 = system: SNB-78
SF-295 = system: SF-295
A549 = system: A549
SW-620 = system: SW-620
HOP-18 = system: HOP-18
LOX IMVI = system: LOX IMVI
TK-10 = system: TK-10
ACHN = system: ACHN
KM12 = system: KM12
OVCAR-8 = system: OVCAR-8
UACC-257 = system: UACC-257
SK-MEL-5 = system: SK-MEL-5
HT-29 = system: HT-29
U-251 = system: U-251
OVCAR-3 = system: OVCAR-3
SNB-19 = system: SNB-19
HCT-15 = system: HCT-15
RXF 393 = system: RXF 393

For `CCNC1CC(n2cc(C)c(=O)[nH]c2=O)OC1CO` (stereo unspecified), the GI50 (HL-60) was > 100 µM (inactive), the GI50 (COLO 205) was > 100 µM (inactive) and the GI50 (SNB-75) was > 100 µM (inactive). The GI50 (NCI-H522) was > 100 µM (inactive), the GI50 (A498) was > 100 µM (inactive) and the GI50 (CAKI-1) was > 100 µM (inactive). The GI50 (HOP-62) was > 100 µM (inactive), the GI50 (CCRF-CEM) was > 100 µM (inactive) and the GI50 (NCI-H23) was > 100 µM (inactive). For the same compound, the GI50 (HCC 2998) was > 100 µM (inactive), the GI50 (SN12C) was > 100 µM (inactive) and the GI50 (SF-268) was > 100 µM (inactive). For the same compound, the GI50 (RPMI-8226) was > 100 µM (inactive), the GI50 (UACC-62) was > 100 µM (inactive) and the GI50 (OVCAR-4) was > 100 µM (inactive). The GI50 (NCI-H460) was > 100 µM (inactive), the GI50 (SK-OV-3) was > 100 µM (inactive) and the GI50 (HCT-116) was > 100 µM (inactive). For the same compound, the GI50 (M19-MEL) was > 100 µM (inactive), the GI50 (DMS-273) was > 100 µM (inactive) and the GI50 (SR) was > 100 µM (inactive). For the same compound, the GI50 (786-0) was > 100 µM (inactive), the GI50 (K562) was > 100 µM (inactive) and the GI50 (DMS-114) was > 100 µM (inactive). For the same compound, the GI50 (IGROV-1) was > 100 µM (inactive), the GI50 (SK-MEL-2) was > 100 µM (inactive) and the GI50 (NCI-H226) was > 100 µM (inactive). The GI50 (HOP-92) was > 100 µM (inactive), the GI50 (DLD-1) was > 100 µM (inactive) and the GI50 (MOLT-4) was > 100 µM (inactive). For the same compound, the GI50 (UO-31) was > 100 µM (inactive), the GI50 (LXFL 529) was > 100 µM (inactive) and the GI50 (XF498) was > 100 µM (inactive). The GI50 (SF-539) was > 100 µM (inactive), the GI50 (M14) was > 100 µM (inactive) and the GI50 (Malme-3M) was > 100 µM (inactive). The GI50 (SK-MEL-28) was > 100 µM (inactive) and the GI50 (SNB-78) was > 100 µM (inactive).
With `CCCc1c[nH]c(-c2ccc(-c3cc(CCC)c(C=O)[nH]3)s2)c1` the GI50 (HL-60) was 21.2 µM (inactive), the GI50 (SNB-75) was 19.8 µM (inactive) and the GI50 (NCI-H522) was 16 µM (inactive). The GI50 (A498) was 7.82 µM (inactive), the GI50 (SF-295) was 18.9 µM (inactive) and the GI50 (A549) was 5.83 µM (inactive). For the same compound, the GI50 (CCRF-CEM) was 21.8 µM (inactive), the GI50 (SW-620) was 17.4 µM (inactive) and the GI50 (NCI-H23) was 26.5 µM (inactive). The GI50 (HOP-18) was 27.7 µM (inactive), the GI50 (SN12C) was 15.6 µM (inactive) and the GI50 (SF-268) was 18.3 µM (inactive). The GI50 (LOX IMVI) was 14 µM (inactive), the GI50 (UACC-62) was 16.9 µM (inactive) and the GI50 (OVCAR-4) was 18.9 µM (inactive). The GI50 (NCI-H460) was 4.55 µM (inactive), the GI50 (SK-OV-3) was 18.5 µM (inactive) and the GI50 (HCT-116) was 18 µM (inactive). The GI50 (TK-10) was 15.3 µM (inactive), the GI50 (ACHN) was 19.2 µM (inactive) and the GI50 (M19-MEL) was 7.93 µM (inactive). The GI50 (DMS-273) was 14.9 µM (inactive), the GI50 (KM12) was 14.7 µM (inactive) and the GI50 (786-0) was 14.6 µM (inactive). For the same compound, the GI50 (K562) was 12.4 µM (inactive), the GI50 (OVCAR-8) was 13.6 µM (inactive) and the GI50 (DMS-114) was 14.1 µM (inactive). The GI50 (IGROV-1) was 30.4 µM (inactive), the GI50 (SK-MEL-2) was 15 µM (inactive) and the GI50 (NCI-H226) was 18.7 µM (inactive). For the same compound, the GI50 (UACC-257) was 17.3 µM (inactive), the GI50 (SK-MEL-5) was 16.9 µM (inactive) and the GI50 (HT-29) was 5.38 µM (inactive). For the same compound, the GI50 (U-251) was 15.6 µM (inactive), the GI50 (DLD-1) was 15 µM (inactive) and the GI50 (MOLT-4) was 26.4 µM (inactive). For the same compound, the GI50 (OVCAR-3) was 17 µM (inactive), the GI50 (UO-31) was 0.0165 µM (active) and the GI50 (SNB-19) was 22 µM (inactive). For the same compound, the GI50 (LXFL 529) was 18.8 µM (inactive), the GI50 (XF498) was 18.7 µM (inactive) and the GI50 (HCT-15) was 14.6 µM. For the same compound, the GI50 (SF-539) was 18.7 µM (inactive), the GI50 (RXF 393) was 21.7 µM (inactive) and the GI50 (M14) was 12.1 µM (inactive). The GI50 (Malme-3M) was 15.2 µM (inactive), the GI50 (SK-MEL-28) was 13.6 µM (inactive) and the GI50 (SNB-78) was 20.1 µM (inactive).

Reference: ChEMBL document CHEMBL1201862, “PubChem BioAssay data set” (2004)
